Experimental findings from ChEMBL document CHEMBL5316327, “Design and Synthesis of Orally Active Quinolyl Pyrazinamides as Sigma 2 Receptor Ligands for the Treatment of Pancreatic Cancer” (J Med Chem, 2023) are described below.

Structures are written as SMILES. pIC50, pKi: −log10 of the molar value. The source made the active and inactive calls. The rule behind the calls is not given here.

The pKi is −log10 of the Ki, conventionally taken in molar units. A word on the AUC: it is the area under the concentration-time curve, a measure of exposure. What is called pIC50 is −log10 of the IC50, conventionally taken in molar units. High values mean a low IC50, low ones a high IC50.

Data set [1] deals with Sigma non-opioid intracellular receptor 1 (Homo sapiens, UniProt Q99720). Briefly: Displacement of [3H](+)-pentazocine from human sigma 1 receptor transfected in human HEK293T cells assessed as inhibition constant by radioligand competition binding assay. It counts as cell-based. (Displacement assays read how much labelled ligand stays bound in the presence of the test substance.)

The target in data set [2] is D(1B) dopamine receptor (Homo sapiens, UniProt P21918). Briefly: Binding affinity to dopamine D5 receptor (unknown origin) assessed as inhibition constant.
Data set [3] can be described thus: Metabolic stability in mouse liver microsomes assessed as half life at 10 uM measured upto 60 mins in presence of NADPH by LC-MS/MS analysis. Particulars: 1 h. It counts as ADME, Microsome. In general terms: Liver microsomes are vesicles of endoplasmic reticulum, rich in cytochrome P450 enzymes.
The test system of data set [4] is PANC-1. Briefly: Induction of autophagy in human PANC-1 cells assessed as upregulation of LC-3 level at 1 to 10 uM measured after 24 hrs. It counts as functional, cell-based. To be noted: dose 1-10 µM.
Data set [5] deals with MIA PaCa-2. Description: Induction of apoptosis in human MIA PaCa-2 cells assessed as viable cells at 10.0 uM measured after 48 hrs by Annexin V-Alexa Fluor 488/propidium iodide staining based flow cytometry (reference value: 82.23%). The data set is classed as functional. To be noted: read-out: Activity. On the technique in general: A flow cytometer gives signals particle by particle.

For data set [6], the system named is MIA PaCa-2. Briefly: Induction of apoptosis in human MIA PaCa-2 cells assessed as early apoptotic cells at 1.0 uM measured after 48 hrs by Annexin V-Alexa Fluor 488/propidium iodide staining based flow cytometry (reference value: 4.11%). It counts as functional.
For data set [7], the system named is MIA PaCa-2. Description: Induction of apoptosis in human MIA PaCa-2 cells assessed as early apoptotic cells at […] measured after 48 hrs by Annexin V-Alexa Fluor 488/propidium iodide staining based flow cytometry (reference value: 4.11%). The data set is classed as functional. Particulars: dose 2.5 µM.
Data set [8] deals with MIA PaCa-2. Briefly: Induction of apoptosis in human MIA PaCa-2 cells assessed as late apoptotic cells at 5.0 uM measured after 48 hrs by Annexin V-Alexa Fluor 488/propidium iodide staining based flow cytometry (reference value: 6.63%). It counts as functional.
The test system of data set [9] is MIA PaCa-2. Briefly: Induction of cell cycle arrest in human MIA PaCa-2 cells assessed as accumulation of cells in G0/G1 phase at 10 uM measured after 24 hrs by propidium iodide staining-based flow cytometric analysis (reference value: 53%). It counts as functional.
For data set [10], the system named is MIA PaCa-2. Description: Induction of cell cycle arrest in human MIA PaCa-2 cells assessed as accumulation of cells in G2/M phase at 5 uM measured after 24 hrs by propidium iodide staining-based flow cytometric analysis (reference value: 16%). It counts as functional.
Data set [11] concerns HCT-116. Description: Induction of cell cycle arrest in human HCT-116 cells assessed as accumulation of cells in G0/G1 phase at 5 uM measured after 24 hrs by propidium iodide staining-based flow cytometric analysis (reference value: 43%). It counts as functional.
The test system of data set [12] is HCT-116. Description: Induction of cell cycle arrest in human HCT-116 cells assessed as accumulation of cells in S phase at 1 uM measured after 24 hrs by propidium iodide staining-based flow cytometric analysis (reference value: 47%). The data set is classed as functional.
Data set [13] relates to HCT-116. Briefly: Induction of cell cycle arrest in human HCT-116 cells assessed as accumulation of cells in S phase at 5 uM measured after 24 hrs by propidium iodide staining-based flow cytometric analysis (reference value: 47%). It counts as functional.
For data set [14], the system named is HCT-116. Description: Induction of cell cycle arrest in human HCT-116 cells assessed as accumulation of cells in G2/M phase at 5 uM measured after 24 hrs by propidium iodide staining-based flow cytometric analysis (reference value: 10%). The data set is classed as functional.
A short description of data set [15]: AUC (0 to time of last detectable concentration) in CD-1 mouse plasma at 20 mg/kg, po. The data set is classed as ADME, organism-based. Further details: dose 20 mg/kg, route po.
For data set [16], the system named is Panc02. Description: Antitumor activity against mouse Panc02 cells xenografted in C57BL/6 mouse model assessed as delayed tumor growth at 60 mg/kg, ip administered daily for 28 days by caliper method. The data set is classed as functional, organism-based. To be noted: time 28.0 day.
Data set [17] relates to MIA PaCa-2. Briefly: Additive cytotoxicity against human MIA PaCa-2 cells at upto 1 uM measured after 7 days in presence of ammonium tetrathiomolybdate by crystal violet staining based analysis. The data set is classed as functional, cell-based. Particulars: time 7.0 day.
Data set [18] has as its system MIA PaCa-2. Briefly: Synergistic ferroptosis activity in human MIA-PaCa-2 cells at upto 1 uM measured after 7 days in presence of erastin by crystal violet staining based analysis. To be noted: time 7.0 day. It counts as functional, cell-based.
Data set [19] has as its system BXPC-3. Briefly: cells. To be noted: Homo sapiens, BXPC-3, 72 h.
Data set [20] can be described thus: cells. To be noted: Mus musculus, KPC2, 72 h.

Chain of D(1B) dopamine receptor (P21918 whole entry): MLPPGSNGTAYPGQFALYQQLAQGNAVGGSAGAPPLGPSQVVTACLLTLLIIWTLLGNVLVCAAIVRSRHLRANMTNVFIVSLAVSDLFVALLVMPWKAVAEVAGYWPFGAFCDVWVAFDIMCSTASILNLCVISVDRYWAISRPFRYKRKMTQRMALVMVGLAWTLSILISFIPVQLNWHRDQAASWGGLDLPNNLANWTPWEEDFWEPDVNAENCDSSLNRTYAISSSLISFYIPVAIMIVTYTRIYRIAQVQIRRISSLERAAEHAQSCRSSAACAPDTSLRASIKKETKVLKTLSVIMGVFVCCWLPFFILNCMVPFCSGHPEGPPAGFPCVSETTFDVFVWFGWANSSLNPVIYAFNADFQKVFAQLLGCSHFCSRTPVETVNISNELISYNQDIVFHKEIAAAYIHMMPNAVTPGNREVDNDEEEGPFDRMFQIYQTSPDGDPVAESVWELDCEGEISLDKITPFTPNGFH
Chain of Sigma non-opioid intracellular receptor 1 (Q99720 whole entry): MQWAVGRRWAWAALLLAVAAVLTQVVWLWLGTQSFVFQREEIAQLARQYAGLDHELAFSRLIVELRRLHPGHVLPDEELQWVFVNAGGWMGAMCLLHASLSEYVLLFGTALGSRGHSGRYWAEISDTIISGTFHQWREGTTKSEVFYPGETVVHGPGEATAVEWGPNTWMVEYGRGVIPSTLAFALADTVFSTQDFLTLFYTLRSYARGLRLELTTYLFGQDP

In the case of `CCN(CC)CCCC(C)Nc1cnc(C(=O)Nc2ccc(Cl)c3cccnc23)cn1` (stereo not given), the pKi in [1] was 6.28; in data set [2], 5.81. In addition, in data set [3], the t1/2 was found to be 1 h. For the same compound, the outcome in data set [4], in data set [16] and in data set [18] was Active. For the same compound, the viability at 10 µM in [5] was found to be 6.27%. Also, the Activity in [6] is 11.44%; in [7] it was 13.89%; in data set [8] it was 40.03%; in data set [9], 69%; in data set [10], 17%; in [11], 44%. Besides, the Activity worked out at 34% in [12], 35% in data set [13] and 22% in [14]. In data set [15], this compound displayed an AUC of 3110 ng·h/mL. In [17], the outcome was inactive. For the same compound, the pIC50 was 5.24 in [19] and 5.57 in data set [20].
